Reference: US11827664B2, “Biaryl amides with modified sugar groups for treatment of diseases associated with heat shock protein pathway” (REATA PHARMACEUTICALS, INC., priority 2018, dated 2023)

Assays:
[1] = Stability in acidic medium, monitored by HPLC; format: physicochemical; conditions: 0.1 N aq. HCl/MeOH (2/1 v/v), room temperature
Procedure: A sample of a test compound (1.2 mg) was dissolved in 0.1 N aq. HCl/MeOH (2/1 v/v, 4 mL) at room temperature. The degradation of the test compound was monitored by HPLC. The percentage of the test compound remaining was calculated using the peak area % in HPLC.

[2] = tested on: rat streptozotocin induced diabetes model for painful diabetic neuropathy; test: Streptozotocin-induced rat model of painful diabetic neuropathy, Von Frey measurement for allodynia; format: in vivo; conditions: STZ 60 mg/kg IV, oral QD dosing started on Day 10
Procedure: A streptozotocin-induced rat model was used to test the effectiveness of KU-596 (T0) and several of the instant compounds in a model of painful diabetic neuropathy. The study rats were allowed to accliminate to the Von Frey apparatus for one day prior to the initial Von Frey measurement. A baseline Von Frey measurement, a body weight measurement, and blood glucose level measurements were conducted one day before the intravenous administration of streptozotocin to induce diabetes. […] Each of the animals in a treatment group was dosed with either the vehicle or a therapeutic agent orally. Treatment was continued until euthanasia approximately one to two weeks later.
Streptozotocin was injected into rats to induce diabetes after a baseline Von Frey measurement for allodynia was collected. Oral administration of each test drug (Compound T0 (KU-596), FIG. 1A; Compound T2, FIG. 1B, and Compound T1, FIG. 1C) was started on Day 10 after another Von Frey measurement.

[3] = tested on: neurons; conditions: in vitro; cited from earlier work
[4] = tested on: diabetic mice; conditions: cited from earlier work
[5] = tested on: neurons; conditions: cited from earlier work; for effect on mitochondrial function / bioenergetics: neurons
[6] = target: Hsp90 C-terminus nucleotide binding pocket; conditions: low affinity; Marcu, et al., 2000; cited from earlier work
[7] = 22 hours (footnote *, printed in the 24 h line)

SMILES | percentage of test compound remaining (HPLC peak area %) ([1]; 0 h) [%] | percentage of test compound remaining (HPLC peak area %) ([1]; 4 h) [%] | percentage of test compound remaining (HPLC peak area %) ([1]; 8 h) [%] | percentage of test compound remaining (HPLC peak area %) ([1]; 12 h) [%] | percentage of test compound remaining (HPLC peak area %) ([1]; 16 h) [%] | percentage of test compound remaining (HPLC peak area %) ([1]; 20 h) [%] | percentage of test compound remaining (HPLC peak area %) ([1]; 24 h) [%] | percentage of test compound remaining (HPLC peak area %) [1, 7] | activity in model of painful diabetic neuropathy relative to T0 (KU-596), Von Frey measurement [2] | protection of neurons from hyperglycemic conditions [3] | effect on symptoms of DPN / neuropathy in diabetic mice [4] | effect on expression of inflammatory markers ([5]; diabetic neurons) | effect on mitochondrial function / bioenergetics [5] | IC50 [6] [µM]
CO[C@@H]1[C@@H](O)[C@@H](O)[C@H](Oc2ccc(CCNC(C)=O)c(-c3cccc(F)c3)c2)O[C@H]1C [T2] | 100.0 | 99.9 | 99.5 | 99.8 | 100.2 | 99.9 |  | 100.2* % | comparable to slightly better activity |  |  |  |  | 
CO[C@@H]1[C@@H](O)[C@@H](O)C(Oc2ccc(CCNC(C)=O)c(-c3cccc(F)c3)c2)OC1(C)C (stereo partly drawn) [KU-596, N-(2-(5-(((3R,4S,5R)-3,4-dihydroxy-5-methoxy-6,6-dimethyltetra-hydro-2H-pyran-2-yl)oxy)-3′-fluoro-[1,1′-biphenyl]-2-yl)ethyl)-acetamide] |  |  |  |  |  |  |  |  |  | protect neurons from hyperglycemic conditions in vitro | alleviate symptoms of neuropathy in diabetic mice | reduce the expression of inflammatory markers in diabetic neurons | improve impaired mitochondrial function in neurons | 
CC(=O)NCCc1ccc(O[C@@H]2OC(C)(C)[C@H](OCc3ccccc3)[C@@H](O)[C@H]2O)cc1-c1cccc(F)c1 [T7] | 100.0 | 93.3 | 85.6 | 78.8 | 71.5 | 65.5 | 61.7 |  |  |  |  |  |  | 
CC(=O)NCCc1ccc(O[C@@H]2O[C@@H](C)[C@H](O)[C@@H](O)[C@H]2O)cc1-c1cccc(F)c1 [T1] | 100.0 | 101.1 | 100.1 | 100.5 | 100.4 | 100.3 | 100.4 |  | comparable to slightly better activity |  |  |  |  | 
CO[C@@H]1[C@@H](OC(N)=O)[C@@H](O)[C@H](Oc2ccc3c(O)c(NC(=O)c4ccc(O)c(CC=C(C)C)c4)c(=O)oc3c2C)OC1(C)C [novobiocin] |  |  |  |  |  |  |  |  |  |  |  |  |  | ~700
CO[C@@H]1[C@@H](O)[C@@H](O)[C@H](Oc2ccc3cc(NC(C)=O)c(=O)oc3c2C)OC1(C)C [KU-32] |  |  |  |  |  |  |  |  |  |  | significant activity in reversing established symptoms of DPN in diabetic mice |  | improve mitochondrial bioenergetics | 
CC(=O)NCCc1ccc(O[C@@H]2OC(C)(C)[C@H](OC(F)F)[C@@H](O)[C@H]2O)cc1-c1cccc(F)c1 [T6] | 100.0 | 99.1 | 99.0 | 97.6 | 96.6 | 96.0 | 95.7 |  |  |  |  |  |  | 
CO[C@@H]1[C@@H](O)[C@@H](O)[C@H](Oc2ccc(CCNC(C)=O)c(-c3cccc(F)c3)c2)OC1(C)C [T0, reference compound] | 100.0 | 96.7 ± 1.4 | 93.4 ± 1.7 | 90.5 ± 2.3 | 87.3 ± 2.9 | 83.9 ± 4.1 | 81.8 ± 4.2 |  |  |  |  |  |  | 
CC(=O)NCCc1ccc(O[C@@H]2OC(C)(C)[C@H](O)[C@@H](O)[C@H]2O)cc1-c1cccc(F)c1 [T3] | 100.0 | 98.1 | 96.1 | 94.1 | 92.2 | 90.2 | 88.3 |  |  |  |  |  |  | 

Second part, led by results:

percentage of test compound remaining (HPLC peak area %) ([1]; 0 h) [%] | percentage of test compound remaining (HPLC peak area %) ([1]; 4 h) [%] | percentage of test compound remaining (HPLC peak area %) ([1]; 8 h) [%] | percentage of test compound remaining (HPLC peak area %) ([1]; 12 h) [%] | percentage of test compound remaining (HPLC peak area %) ([1]; 16 h) [%] | percentage of test compound remaining (HPLC peak area %) ([1]; 20 h) [%] | percentage of test compound remaining (HPLC peak area %) ([1]; 24 h) [%] | percentage of test compound remaining (HPLC peak area %) [1, 7] | SMILES | activity in model of painful diabetic neuropathy relative to T0 (KU-596), Von Frey measurement [2] | protection of neurons from hyperglycemic conditions [3] | effect on symptoms of DPN / neuropathy in diabetic mice [4] | effect on expression of inflammatory markers ([5]; diabetic neurons) | effect on mitochondrial function / bioenergetics [5] | IC50 [6] [µM]
100.0 | 99.9 | 99.0 | 98.5 | 97.9 | 97.0 | 96.5 |  | CC(=O)NCCc1ccc(O[C@@H]2O[C@@H](C)[C@@H](O)[C@@H](O)[C@@H]2O)cc1-c1cccc(F)c1 [T15] |  |  |  |  |  | 
100.0 | 100.2 | 100.3 | 100.6 | 100.9 | 101.4 | 102.1 |  | CNC(=O)CCc1ccc(O[C@@H]2O[C@@H](C)[C@H](OC)[C@@H](O)[C@H]2O)cc1-c1cccc(F)c1 [T11] |  |  |  |  |  | 
100.0 | 100.4 | 100.2 | 101.0 | 101.1 | 101.3 | 101.2 |  | CC(=O)NCCc1ccc(O[C@H]2O[C@H](C)[C@@H](O)[C@H](O)[C@@H]2O)cc1-c1cccc(F)c1 [T54] |  |  |  |  |  | 
100.0 | 97.7 | 94.8 | 91.9 | 89.2 | 86.8 | 84.4 |  | CO[C@@H]1[C@@H](O)[C@@H](O)[C@@H](Oc2ccc(CCNC(C)=O)c(-c3cccc(F)c3)c2)OC1(C)C [T20] |  |  |  |  |  | 
100.0 | 99.3 | 99.7 | 100.3 | 99.5 | 99.7 | 99.3 |  | CO[C@@H]1[C@@H](O)[C@@H](O)[C@H](Oc2ccc(C(F)(F)CNC(C)=O)c(-c3cccc(F)c3)c2)O[C@H]1C [T13] |  |  |  |  |  | 
100.0 | 97.2 | 95.5 | 93.7 | 92.3 | 90.6 |  | 89.9* % | CO[C@@H]1[C@@H](O)[C@@H](O)[C@H](Oc2ccc(C(F)(F)CNC(C)=O)c(-c3cccc(F)c3)c2)OC1(C)C [T12] |  |  |  |  |  | 
100.0 | 97.6 | 97.6 | 97.5 | 97.2 | 98.0 | 97.4 |  | CC(=O)NCCc1ccc(O[C@@H]2O[C@@H](CO)[C@H](O)[C@@H](O)[C@H]2O)cc1-c1cccc(F)c1 [T60] |  |  |  |  |  | 
100.0 | 97.9 | 93.4 | 90.3 | 86.4 | 82.5 | 79.3 |  | CNC(=O)CCc1ccc(O[C@@H]2OC(C)(C)[C@H](OC)[C@@H](O)[C@H]2O)cc1-c1cccc(F)c1 [T57] |  |  |  |  |  | 
